Source: PubChem BioAssay AID248 (DTP/NCI, 2004)
Inconclusive results and toxic doses are left out. No stated cut-off is given here; in the data, active means T/C of 150% or more; inactive means T/C below 125%.

Tested on: L1210 leukemia ip in BDF1 mice, survival T/C
Assay: NCI In Vivo Anticancer Drug Screen. Data for tumor model L1210 Leukemia (intraperitoneal) in B6D2F1 (BDF1) mice
Conditions: endpoint: mean survival time, higher = longer survival
Procedure, shortened: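 In this screen, tumor-bearing mice given compound are compared to those given vehicle, and their survival values are reported as a treated-to-control quotient.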

[1] = dose: 100.0 mg/kg/injection, schedule: Q01DX001 (ip), vehicle: carboxymethylcellulose (CMC)
[2] = dose: 200.0 mg/kg/injection, schedule: Q01DX001 (ip), vehicle: carboxymethylcellulose (CMC)
[3] = dose: 100.0 mg/kg/injection, schedule: Q01DX009 (ip), vehicle: saline with Tween-80
[4] = dose: 100.0 mg/kg/injection, schedule: Q04DX003 (ip), vehicle: saline
[5] = dose: 200.0 mg/kg/injection, schedule: Q01DX009 (ip), vehicle: saline with Tween-80
[6] = dose: 200.0 mg/kg/injection, schedule: Q04DX003 (ip), vehicle: saline
[7] = dose: 400.0 mg/kg/injection, schedule: Q01DX009 (ip), vehicle: saline with Tween-80
[8] = dose: 400.0 mg/kg/injection, schedule: Q04DX003 (ip), vehicle: saline
[9] = dose: 100.0 mg/kg/injection, schedule: Q04DX003 (ip), vehicle: Klucel (hydroxypropylcellulose) (HPC)
[10] = dose: 200.0 mg/kg/injection, schedule: Q04DX003 (ip), vehicle: Klucel (hydroxypropylcellulose) (HPC)
[11] = dose: 400.0 mg/kg/injection, schedule: Q04DX003 (ip), vehicle: Klucel (hydroxypropylcellulose) (HPC)
[12] = dose: 100.0 mg/kg/injection, schedule: Q04DX002 (ip), vehicle: Klucel (hydroxypropylcellulose) (HPC)
[13] = dose: 200.0 mg/kg/injection, schedule: Q04DX002 (ip), vehicle: Klucel (hydroxypropylcellulose) (HPC)
[14] = dose: 400.0 mg/kg/injection, schedule: Q04DX002 (ip), vehicle: Klucel (hydroxypropylcellulose) (HPC)
[15] = dose: 100.0 mg/kg/injection, schedule: Q01DX001 (ip), vehicle: saline
[16] = dose: 200.0 mg/kg/injection, schedule: Q01DX001 (ip), vehicle: saline
[17] = dose: 400.0 mg/kg/injection, schedule: Q01DX001 (ip), vehicle: saline
[18] = dose: 100.0 mg/kg/injection, schedule: Q04DX003 (ip), vehicle: saline with Tween-80
[19] = dose: 200.0 mg/kg/injection, schedule: Q04DX003 (ip), vehicle: saline with Tween-80
[20] = dose: 400.0 mg/kg/injection, schedule: Q04DX003 (ip), vehicle: saline with Tween-80

Measured: T/C

CC12CC3CC(C)(C1)CC(O)(C3)C2
inactive: dose: 50.0 mg/kg/injection, schedule: Q01DX001 (ip), vehicle: carboxymethylcellulose (CMC) 101 % of control | [1] 98 % of control | [2] 92 % of control

CC1C(=O)CCC2(C)CCC(C)(C)CC12 (centres undefined)
inactive: [3] 98 % of control | [4] 105 % of control | [5] 95 % of control | [6] 97 % of control | [7] 101 % of control | [8] 103 % of control

Cc1n[nH]c(C)c1Br
inactive: dose: 75.0 mg/kg/injection, schedule: Q01DX009 (ip), vehicle: saline with Tween-80 95 % of control | dose: 75.0 mg/kg/injection, schedule: Q04DX003 (ip), vehicle: saline with Tween-80 97 % of control | dose: 150.0 mg/kg/injection, schedule: Q01DX009 (ip), vehicle: saline with Tween-80 97 % of control | dose: 150.0 mg/kg/injection, schedule: Q04DX003 (ip), vehicle: saline with Tween-80 95 % of control | dose: 300.0 mg/kg/injection, schedule: Q01DX009 (ip), vehicle: saline with Tween-80 99 % of control | dose: 300.0 mg/kg/injection, schedule: Q04DX003 (ip), vehicle: saline with Tween-80 98 % of control

CCCCNC(C)(C)C(=O)c1cccs1
inactive: [4] 102 % of control | [6] 86 % of control

Clc1ccc2nsnc2c1Cl
inactive: [9] 95 % of control | [10] 98 % of control | [11] 98 % of control

O=C(COc1cc(Cl)c(Cl)cc1Cl)NCCO
inactive: [12] 92 % of control | [13] 110 % of control | [14] 108 % of control

CCCOC(=O)Nc1cccc(O)c1
inactive: [3] 92 % of control | [5] 94 % of control | [7] 88 % of control

COc1ccccc1C(=O)N/N=C/c1cccc([N+](=O)[O-])c1
inactive: [12] 96 % of control | [13] 89 % of control | [14] 89 % of control

CC(=O)Oc1ccccc1/C=C\C=O
inactive: [15] 103 % of control | [16] 106 % of control | [17] 105 % of control

O=C1CC2(C(=O)O)CC3CC2C(O1)C3I (centres undefined)
inactive: dose: 100.0 mg/kg/injection, schedule: Q01DX009 (ip), vehicle: carboxymethylcellulose (CMC) 86 % of control | dose: 100.0 mg/kg/injection, schedule: Q04DX003 (ip), vehicle: carboxymethylcellulose (CMC) 105 % of control | dose: 200.0 mg/kg/injection, schedule: Q01DX009 (ip), vehicle: carboxymethylcellulose (CMC) 96 % of control | dose: 200.0 mg/kg/injection, schedule: Q04DX003 (ip), vehicle: carboxymethylcellulose (CMC) 97 % of control | dose: 400.0 mg/kg/injection, schedule: Q01DX009 (ip), vehicle: carboxymethylcellulose (CMC) 94 % of control | dose: 400.0 mg/kg/injection, schedule: Q04DX003 (ip), vehicle: carboxymethylcellulose (CMC) 103 % of control

CC(=O)OC1CCC2(C)C(=CC=C3C2CCC2(C)C3CCC2C(C)/C=C/C(C)C(C)C)C1 (centres undefined)
inactive: dose: 100.0 mg/kg/injection, schedule: Q04DX002 (sc), vehicle: saline with Tween-80 97 % of control | [9] 93 % of control | dose: 200.0 mg/kg/injection, schedule: Q04DX002 (sc), vehicle: saline with Tween-80 97 % of control | [10] 96 % of control | dose: 400.0 mg/kg/injection, schedule: Q04DX002 (sc), vehicle: saline with Tween-80 97 % of control | [11] 93 % of control

C1=C(c2ccccc2)N(C2CCCC2)C(c2ccccc2)=CN1Cc1ccccc1
inactive: [12] 100 % of control | [13] 95 % of control | [14] 97 % of control

O=C(OC(c1ccccc1)c1ccccc1)c1ccc([N+](=O)[O-])cc1
inactive: [1] 98 % of control | [2] 104 % of control | dose: 400.0 mg/kg/injection, schedule: Q01DX001 (ip), vehicle: carboxymethylcellulose (CMC) 96 % of control

NC(c1ccccc1)(c1ccccc1)c1ccccc1
inactive: [15] 101 % of control | [16] 101 % of control | [17] 101 % of control

C/C=C1\CN2CCc3c(n(C)c4ccccc34)C2CC1C(=O)OC (centres undefined)
inactive: [18] 101 % of control | [19] 88 % of control | [20] 106 % of control

COC(=O)C1C2CC(=O)C(C2)C1C(=O)OC (centres undefined)
inactive: dose: 100.0 mg/kg/injection, schedule: Q01DX009 (ip), vehicle: saline 96 % of control | [18] 98 % of control | [4] 100 % of control | dose: 200.0 mg/kg/injection, schedule: Q01DX009 (ip), vehicle: saline 105 % of control | [19] 86 % of control | [6] 100 % of control | dose: 400.0 mg/kg/injection, schedule: Q01DX009 (ip), vehicle: saline 99 % of control | [20] 91 % of control | [8] 96 % of control

C=COC(N)=O
inactive: dose: 33.0 mg/kg/injection, schedule: Q01DX001 (ip), vehicle: saline 116 % of control | dose: 50.0 mg/kg/injection, schedule: Q01DX001 (ip), vehicle: saline 117 % of control | dose: 75.0 mg/kg/injection, schedule: Q01DX001 (ip), vehicle: saline 121 % of control | dose: 113.0 mg/kg/injection, schedule: Q01DX001 (ip), vehicle: saline 111 % of control

CC(C)(C)c1ccc(S(=O)(=O)C/C=C/COc2ccccc2)cc1
inactive: dose: 75.0 mg/kg/injection, schedule: Q01DX009 (ip), vehicle: Klucel (hydroxypropylcellulose) (HPC) 91 % of control | dose: 150.0 mg/kg/injection, schedule: Q01DX009 (ip), vehicle: Klucel (hydroxypropylcellulose) (HPC) 98 % of control

O=C(/C=C/C=C/C=C/C=C/C(=O)N1CCCCC1)N1CCCCC1
inactive: [15] 97 % of control | [16] 92 % of control | [17] 89 % of control

CN(C)/N=C1/CC(=O)CC(C)(C)C1
inactive: dose: 50.0 mg/kg/injection, schedule: Q01DX009 (ip), vehicle: Klucel (hydroxypropylcellulose) (HPC) 110 % of control | dose: 100.0 mg/kg/injection, schedule: Q01DX009 (ip), vehicle: Klucel (hydroxypropylcellulose) (HPC) 100 % of control | dose: 200.0 mg/kg/injection, schedule: Q01DX009 (ip), vehicle: Klucel (hydroxypropylcellulose) (HPC) 100 % of control

CN(C)c1ccc(C=Nc2ccccc2)cc1
inactive: dose: 100.0 mg/kg/injection, schedule: Q01DX001 (ip), vehicle: other 98 % of control | dose: 200.0 mg/kg/injection, schedule: Q01DX001 (ip), vehicle: other 102 % of control | dose: 400.0 mg/kg/injection, schedule: Q01DX001 (ip), vehicle: other 108 % of control

N=c1ncn(C2OC(COP(=O)(O)O)C(O)C2O)c2nc[nH]c12 (centres undefined)
inactive: dose: 1.56 mg/kg/injection, schedule: Q01DX005 (ip), vehicle: water 102 % of control | dose: 6.25 mg/kg/injection, schedule: Q01DX005 (ip), vehicle: water 103 % of control | dose: 12.5 mg/kg/injection, schedule: Q01DX005 (ip), vehicle: water 105 % of control | dose: 25.0 mg/kg/injection, schedule: Q01DX005 (ip), vehicle: water 94 % of control
